Experimental data: patent US10562912B2 (C&C Research Laboratories, priority 2013, dated 2020)

How the values were obtained:
Assay type in all cases: cell-based
[1] = target: T1, STAT3 (Homo sapiens, UniProt P40763); experiment: STAT3 reporter gene assay (luciferase), LNCaP stable cell line (pSTAT3-TA-luc), IL-6 stimulation
T1 construct: plasmid pSTAT3-TA-luc), which contains a stably operating STAT3 promoter; endogenous in cells
Summary of the method: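 Cytotoxicity was run on a duplicate plate with CellTiter-Glo, while the other plate gave luciferase read-outs from lysed LNCaP pSTAT3-TA-luc reporter cells. Cells were treated with graded compound concentrations plus IL-6 (10 ng/mL final) for 24–48 h in 3% DCC-FBS medium. Unstimulated and stimulated wells served as negative and positive controls.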

[2] = system: LNCaP; experiment: Cell growth inhibition assay, prostate cancer cell line LNCaP (medium with 10 ng/mL IL-6); settings: Homo sapiens, medium supplemented with 10 ng/mL of IL-6, 10,000 cells/well
[3] = system: DU-145; experiment: Cell growth inhibition assay, prostate cancer cell line DU-145; settings: Homo sapiens, DU-145 prostate cancer cell line
Summary of the method: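 Readout was CellTiter-Glo luminescence after 72–96 h of compound exposure at 37 °C, 5% CO2. Plating density was 3,000 cells/well for DU-145 and HCT116 and 5,000 cells/well for SW626. Controls were 0.1% DMSO wells and medium-only wells.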

[4] = system: HEL92.1.7; experiment: Cell growth inhibition assay, blood cancer cell line HEL92.1.7; settings: Homo sapiens, HEL 92.1.7, HEL92.1.7 blood cancer cell line
Summary of the method: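 Cells were seeded at 3,000/well (HCT116, DU-145) or 5,000/well (SW626 and the others) and exposed to serial compound dilutions for 72 to 96 h at 37 °C under 5% CO2. Viability was read as CellTiter-Glo luminescence against 0.1% DMSO and cell-free wells.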

[5] = system: U266; experiment: Cell growth inhibition assay, blood cancer cell line U266; settings: Homo sapiens, U-266 blood cancer cell line
Experimental: The inhibitory effects of the compounds of the present invention against the growth of cancer cells were evaluated as shown below. The cancer cell lines including stomach cancer cell line (AGS), breast cancer cell lines (MDA-MB-231, MDA-MB-468, and BT-549), prostate cancer cell lines (LNCaP and DU-145), colon cancer cell line (HCT116), ovarian cancer cell line (SW626), liver cancer cell line (Hep3B), kidney cancer cell line (ACHN), lung cancer cell line (NCI-H23) and blood cancer cell lines (HEL92.1.7 and U266) were cultured under the protocol provided by each supplier. A medium supplemented with 10 ng/mL of IL-6 was used for LNCaP, a prostate cancer cell line, when treated with a drug. Each type of cells to be used in experiments were sub-cultured in a 96-well plate by counting the exact number of cells using Tali™ Image-based Cytometer (Life Technologies). In a 96-well plate, AGS, HCT116, and DU-145 were employed with 3,000 cells/well; NCI-H23, SW626, Hep3B, ACHN, BT-549, MDA-MB-231, HEL92.1.7, and U266 were employed with 5,000 cells/well; and LNCaP and MDA-MB-468 were employed with 10,000 cells/well. The cells were treated with the compounds listed in Examples which were diluted in various concentrations. Upon completion of the compounds treatment, AGS, HCT116, SW626, DU145, NCI-H23, Hep3B, ACHN, BT-549, LNCaP, HEL92.1.7, and U266 cells were cultured at 37° C. under 5% CO2 for from 72 to 96 hours, and MDA-MB-231 and MDA-MB-468 cells were cultured at 37° C. in air for from 72 to 96 hours. Subsequently, the cells were observed under microscope and drug precipitation and particular findings were investigated and recorded. And then, the 96-well plate was placed at room temperature for 30 minutes, added with 20 μL/well of CellTiter-Glo solution (Cat No. G7573, Promega) and shaken for 10 minutes, followed by being subjected to the measurement using PHERAstar™ microplate reader (BMG LABTECH) according to the supplier's general luminometer protocol. Wells where only culture liquid added without cell plating were used as a negative control, whereas wells where culture liquid containing 0.1% DMSO instead of the compounds listed in Examples were used as a positive control.

[6] = system: AGS; experiment: Cell growth inhibition assay, stomach cancer cell line AGS; settings: Homo sapiens; AGS stomach cancer cell line, 3,000 cells/well
[7] = system: MDA-MB-231; experiment: Cell growth inhibition assay, breast cancer cell line MDA-MB-231; settings: Homo sapiens; MDA-MB-231 breast cancer cell line, 5,000 cells/well

T1 sequence (P40763 whole entry): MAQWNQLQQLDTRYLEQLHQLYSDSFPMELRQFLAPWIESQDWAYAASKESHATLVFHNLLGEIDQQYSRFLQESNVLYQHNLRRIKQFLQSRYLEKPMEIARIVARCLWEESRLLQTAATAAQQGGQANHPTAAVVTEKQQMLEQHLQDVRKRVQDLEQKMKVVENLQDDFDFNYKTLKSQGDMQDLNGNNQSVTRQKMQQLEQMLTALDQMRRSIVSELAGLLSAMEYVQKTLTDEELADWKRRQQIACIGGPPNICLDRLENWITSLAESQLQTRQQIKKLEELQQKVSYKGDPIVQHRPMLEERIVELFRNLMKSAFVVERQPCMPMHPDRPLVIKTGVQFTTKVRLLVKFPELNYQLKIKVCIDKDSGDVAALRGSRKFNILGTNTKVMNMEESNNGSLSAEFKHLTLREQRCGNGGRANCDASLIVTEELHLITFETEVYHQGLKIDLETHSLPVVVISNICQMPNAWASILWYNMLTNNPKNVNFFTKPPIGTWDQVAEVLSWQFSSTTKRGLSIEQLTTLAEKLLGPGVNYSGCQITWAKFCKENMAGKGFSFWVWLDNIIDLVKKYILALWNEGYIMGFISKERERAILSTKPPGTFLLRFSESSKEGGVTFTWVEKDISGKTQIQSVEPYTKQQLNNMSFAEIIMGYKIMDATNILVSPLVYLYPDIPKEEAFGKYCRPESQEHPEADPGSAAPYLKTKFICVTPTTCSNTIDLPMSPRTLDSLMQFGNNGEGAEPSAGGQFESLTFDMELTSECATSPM

SMILES | IC50 [1] [µM] | IC50 [2] [µM] | IC50 [3] [µM] | IC50 [4] [µM] | IC50 [5] [µM] | IC50 [6] [µM] | IC50 [7] [µM]
CC(C)COc1cc(OC(F)(F)F)cc(C(C)(C)c2cc(Cl)cc(NC(=O)c3cc4cc(NS(C)(=O)=O)ccc4s3)c2)c1 [Example 72, N-(3-chloro-5-(2-(3-isobutoxy-5-(trifluoromethoxy)phenyl)propan-2-yl)phenyl)-5-(methylsulfonamido)benzo[b]thiophene-2-carboxamide] | 0.021 | 0.034 | 0.006 | 0.087 | 0.1 | – | –
CS(=O)(=O)Nc1ccc2cc(C(=O)Nc3cc(OCC(F)F)cc(C(F)(F)c4cccc(C#N)c4)c3)[nH]c2c1 [Example 391, N-(3-((3-cyanophenyl)difluoromethyl)-5-(2,2-difluoroethoxy)phenyl)-6-(methylsulfonamido)-1H-indole-2-carboxamide] | 2.4 | > 10 | – | – | – | 18.1 | 3.3
CS(=O)(=O)Nc1ccc2cc(C(=O)Nc3cc(OCC#N)cc(C(F)(F)c4cccc(C#N)c4)c3)[nH]c2c1 [Example 393, N-(3-(cyanomethoxy)-5-((3-cyanophenyl)difluoromethyl)phenyl)-6-(methylsulfonamido)-1H-indole-2-carboxamide] | > 10 | > 10 | – | – | – | 10.3 | 5
CS(=O)(=O)Nc1ccc2cc(C(=O)Nc3cccc(S(=O)(=O)c4ccccc4)c3)[nH]c2c1 [Example 395, 6-(methylsulfonamido)-N-(3-(phenylsulfonyl)phenyl)-1H-indole-2-carboxamide] | 2.1 | > 10 | – | – | – | 20.6 | 4.2
CS(=O)(=O)Nc1ccc2cc(C(=O)Nc3cccc(S(=O)(=O)c4cccc(OC(F)(F)F)c4)c3)[nH]c2c1 [Example 396] | 2.5 | 8.9 | – | – | – | 11.8 | 1.2
COc1cc(NC(=O)c2cc3ccc(NS(C)(=O)=O)cc3[nH]2)cc(S(=O)(=O)c2cccc(OC(F)(F)F)c2)c1 [Example 397, N-(3-methoxy-5-((3-(trifluoromethoxy)phenyl)sulfonyl)phenyl)-6-(methylsulfonamido)-1H-indole-2-carboxamide] | 3 | 5.8 | – | – | – | 8.7 | 2.8
CS(=O)(=O)Nc1ccc2cc(C(=O)Nc3cc(C(F)(F)F)cc(S(=O)(=O)c4cccc(OC(F)(F)F)c4)c3)[nH]c2c1 [Example 398, 6-(methylsulfonamido)-N-(3-((3-(trifluoromethoxy)phenyl)sulfonyl)-5-(trifluoromethyl)phenyl)-1H-indole-2-carboxamide] | 1.6 | 2.6 | – | – | – | 5.2 | 1.2
CS(=O)(=O)Nc1ccc2cc(C(=O)Nc3cc(C#N)cc(S(=O)(=O)c4cccc(OC(F)(F)F)c4)c3)[nH]c2c1 [Example 399, N-(3-cyano-5-((3-(trifluoromethoxy)phenyl)sulfonyl)phenyl)-6-(methylsulfonamido)-1H-indole-2-carboxamide] | 2.8 | > 10 | – | – | – | 13.2 | 3.4
CC(C)COc1cc(NC(=O)c2cc3ccc(NS(C)(=O)=O)cc3[nH]2)cc(S(=O)(=O)c2cccc(OC(F)(F)F)c2)c1 [Example 400, N-(3-isobutoxy-5-((3-(trifluoromethoxy)phenyl)sulfonyl)phenyl)-6-(methylsulfonamido)-1H-indole-2-carboxamide] | 3.2 | > 10 | – | – | – | 14.9 | 3.5
CS(=O)(=O)Nc1ccc2cc(C(=O)Nc3cc(OCC(F)F)cc(S(=O)(=O)c4cccc(OC(F)(F)F)c4)c3)[nH]c2c1 [Example 401, N-(3-(2,2-difluoroethoxy)-5-((3-(trifluoromethoxy)phenyl)sulfonyl)phenyl)-6-(methylsulfonamido)-1H-indole-2-carboxamide] | 4 | 8 | – | – | – | 7.3 | 2.5

The remaining compounds from weak to strong by IC50 [1], led by results:

IC50 [1] [µM] | IC50 [2] [µM] | IC50 [3] [µM] | IC50 [4] [µM] | IC50 [5] [µM] | IC50 [6] [µM] | IC50 [7] [µM] | SMILES
0.072 | 0.25 | 0.069 | 0.3 | 0.43 | – | – | COc1cc(OC(F)(F)F)cc(C(C)(C)c2cc(Br)cc(NC(=O)c3cc4cc(NS(C)(=O)=O)cnc4s3)c2)c1 [Example 56, N-(3-bromo-5-(2-(3-methoxy-5-(trifluoromethoxy)phenyl)propan-2-yl)phenyl)-5-(methylsulfonamido)thieno[2,3-b]pyridine-2-carboxamide]
0.068 | 0.29 | 0.12 | 0.36 | 0.46 | – | – | CC(C)Oc1cc(OC(F)(F)F)cc(C(C)(C)c2cc(Cl)cc(NC(=O)c3cc4nc(NS(C)(=O)=O)ccc4s3)c2)c1 [Example 70, N-(3-chloro-5-(2-(3-isopropoxy-5-(trifluoromethoxy)phenyl)propan-2-yl)phenyl)-5-(methylsulfonamido)thieno[3,2-b]pyridine-2-carboxamide]
0.067 | 0.16 | 0.047 | 0.18 | 0.33 | – | – | COc1cc(OC(F)(F)F)cc(C(C)(C)c2cc(Cl)cc(NC(=O)c3cc4cc(NS(C)(=O)=O)cnc4s3)c2)c1 [Example 57, N-(3-chloro-5-(2-(3-methoxy-5-(trifluoromethoxy)phenyl)propan-2-yl)phenyl)-5-(methylsulfonamido)thieno[2,3-b]pyridine-2-carboxamide]
0.066 | 0.13 | 0.06 | 0.14 | 0.22 | – | – | CCOc1cc(OC(F)(F)F)cc(C(C)(C)c2cc(Br)cc(NC(=O)c3cc4cc(NS(C)(=O)=O)ncc4s3)c2)c1 [Example 61, N-(3-bromo-5-(2-(3-ethoxy-5-(trifluoromethoxy)phenyl)propan-2-yl)phenyl)-5-(methylsulfonamido)thieno[2,3-c]pyridine-2-carboxamide]
0.052 | 0.058 | 0.052 | 0.09 | 0.14 | – | – | CC(C)Oc1cc(OC(F)(F)F)cc(C(C)(C)c2cc(Cl)cc(NC(=O)c3cc4cc(NS(C)(=O)=O)cnc4s3)c2)c1 [Example 69, N-(3-chloro-5-(2-(3-isopropoxy-5-(trifluoromethoxy)phenyl)propan-2-yl)phenyl)-5-(methylsulfonamido)thieno[2,3-b]pyridine-2-carboxamide]
0.021 | 0.12 | 0.039 | 0.42 | 0.16 | – | – | CCOc1cc(OC(F)(F)F)cc(C(C)(C)c2cc(Cl)cc(NC(=O)c3cc4ccc(NS(C)(=O)=O)cc4[nH]3)c2)c1 [Example 59, N-(3-chloro-5-(2-(3-ethoxy-5-(trifluoromethoxy)phenyl)propan-2-yl)phenyl)-6-(methylsulfonamido)-1H-indole-2-carboxamide]
0.009 | 0.091 | 0.048 | 0.13 | 0.17 | – | – | CC(C)Oc1cc(OC(F)(F)F)cc(C(C)(C)c2cc(Cl)cc(NC(=O)c3cc4cc(NS(C)(=O)=O)ncc4s3)c2)c1 [Example 71, N-(3-chloro-5-(2-(3-isopropoxy-5-(trifluoromethoxy)phenyl)propan-2-yl)phenyl)-5-(methylsulfonamido)thieno[2,3-c]pyridine-2-carboxamide]
0.007 | 0.032 | 0.006 | 0.074 | 0.005 | – | – | CCOc1cc(OC(F)(F)F)cc(C(C)(C)c2cc(Cl)cc(NC(=O)c3cc4cc(NS(C)(=O)=O)ccc4s3)c2)c1 [Example 58, N-(3-chloro-5-(2-(3-ethoxy-5-(trifluoromethoxy)phenyl)propan-2-yl)phenyl)-5-(methylsulfonamido)benzo[b]thiophene-2-carboxamide]
